Here are results for 1 compound from PMC5218480 (PLoS ONE, 2017).

The assay has as its system MV-4-11 cells. The assay can be described thus: Gene expression microarray analysis (Affymetrix PrimeView) and GSEA. The arrangement: RFU PODN (11730768_x_at) / Fold change /veh PODN (11730768_x_at) / RFU LINC00158 (11744669_a_at) / Fold change /veh LINC00158 (11744669_a_at) / RFU DUSP10 (11751237_a_at) / Fold change /veh DUSP10 (11751237_a_at) / RFU ID3 (11757404_x_at) / Fold change /veh ID3 (11757404_x_at) / RFU PLEKHG5 (11737974_s_at) / Fold change /veh PLEKHG5 (11737974_s_at) / RFU LRRC4B (11730491_at) / Fold change /veh LRRC4B (11730491_at) / RFU GIMAP4 (11747438_a_at) / Fold change /veh GIMAP4 (11747438_a_at) / RFU KRT8 (11758183_x_at) / Fold change /veh KRT8 (11758183_x_at) / RFU CNN1 (11734310_a_at) / Fold change /veh CNN1 (11734310_a_at) / RFU VPS37D (11726825_at) / Fold change /veh VPS37D (11726825_at) / RFU C10orf10 (11716522_x_at) / Fold change /veh C10orf10 (11716522_x_at) / RFU KIR2DL2 /// KIR2DL4 /// KIR2DL5A /// KIR2DL5B /// KIR2DS1 /// KIR2DS2 /// KIR2DS3 /// KIR2DS4 /// KIR3DL3 /// KIR3DL3 /// KIR3DS1 (11738374_at) / Fold change /veh KIR2DL2 /// KIR2DL4 /// KIR2DL5A /// KIR2DL5B /// KIR2DS1 /// KIR2DS2 /// KIR2DS3 /// KIR2DS4 /// KIR3DL3 /// KIR3DL3 /// KIR3DS1 (11738374_at) / RFU C1QL1 (11718748_at) / Fold change /veh C1QL1 (11718748_at) / RFU TMPRSS4 (11747572_a_at) / Fold change /veh TMPRSS4 (11747572_a_at) / RFU HAMP (11756126_x_at) / Fold change /veh HAMP (11756126_x_at) / RFU RNFT2 (11725882_a_at) / Fold change /veh RNFT2 (11725882_a_at) / RFU NR4A2 (11747474_a_at) / Fold change /veh NR4A2 (11747474_a_at) / RFU ABCC12 (11746883_a_at) / Fold change /veh ABCC12 (11746883_a_at) / RFU TMEM136 (11760407_x_at) / Fold change /veh TMEM136 (11760407_x_at) / RFU CLDN22 /// WWC2 (11732394_at) / Fold change /veh CLDN22 /// WWC2 (11732394_at) / RFU HLA-DPB1 (11760878_x_at) / Fold change /veh HLA-DPB1 (11760878_x_at) / RFU SPINT1 (11716480_a_at) / Fold change /veh SPINT1 (11716480_a_at) / RFU GAP43 (11754022_s_at) / Fold change /veh GAP43 (11754022_s_at) / RFU A4GNT (11735810_at) / Fold change /veh A4GNT (11735810_at) / RFU PRB3 (11715151_x_at) / Fold change /veh PRB3 (11715151_x_at) / RFU TUBB4B (11761932_at) / Fold change /veh TUBB4B (11761932_at) / RFU CAPN14 (11732068_a_at) / Fold change /veh CAPN14 (11732068_a_at) / RFU TMCC2 (11721928_a_at) / Fold change /veh TMCC2 (11721928_a_at) / RFU IRGQ (11745062_a_at) / Fold change /veh IRGQ (11745062_a_at) / RFU FAM174B (11720279_a_at) / Fold change /veh FAM174B (11720279_a_at) / RFU TMPRSS4 (11748680_a_at) / Fold change /veh TMPRSS4 (11748680_a_at) / RFU FAM212B (11763350_a_at) / Fold change /veh FAM212B (11763350_a_at) / RFU PLEKHG5 (11743358_a_at) / Fold change /veh PLEKHG5 (11743358_a_at) / RFU ZSCAN30 (11745921_a_at) / Fold change /veh ZSCAN30 (11745921_a_at) / RFU CMKLR1 (11741424_a_at) / Fold change /veh CMKLR1 (11741424_a_at) / RFU LOC101060620 /// MAPK8IP1 (11723275_at) / Fold change /veh LOC101060620 /// MAPK8IP1 (11723275_at) / RFU SPTSSB (11747773_x_at) / Fold change /veh SPTSSB (11747773_x_at) / RFU PRSS12 (11739890_at) / Fold change /veh PRSS12 (11739890_at) / RFU BIN1 (11741810_x_at) / Fold change /veh BIN1 (11741810_x_at) / RFU WNT11 (11732464_a_at) / Fold change /veh WNT11 (11732464_a_at) / RFU C10orf10 (11716521_a_at) / Fold change /veh C10orf10 (11716521_a_at) / RFU C5orf56 (11738089_at) / Fold change /veh C5orf56 (11738089_at) / RFU CYB561 (11721691_x_at) / Fold change /veh CYB561 (11721691_x_at) / RFU ANKRD19P (11752326_a_at) / Fold change /veh ANKRD19P (11752326_a_at) / RFU OR2T12 /// OR2T33 /// OR2T8 (11738714_s_at) / Fold change /veh OR2T12 /// OR2T33 /// OR2T8 (11738714_s_at) / RFU VCAN (11748164_a_at) / Fold change /veh VCAN (11748164_a_at) / RFU JSRP1 (11732532_at) / Fold change /veh JSRP1 (11732532_at) / RFU KRTAP10-11 (11738290_x_at) / Fold change /veh KRTAP10-11 (11738290_x_at) / RFU MYO3A (11730013_a_at) / Fold change /veh MYO3A (11730013_a_at) / RFU EBF3 (11725865_a_at) / Fold change /veh EBF3 (11725865_a_at) / RFU CAMK2N1 (11719241_x_at) / Fold change /veh CAMK2N1 (11719241_x_at) / RFU C5orf56 (11738088_a_at) / Fold change /veh C5orf56 (11738088_a_at) / RFU OLFML3 (11715873_a_at) / Fold change /veh OLFML3 (11715873_a_at) / RFU LOC100653217 /// NTM (11731650_a_at) / Fold change /veh LOC100653217 /// NTM (11731650_a_at) / RFU MAPK11 (11762145_a_at) / Fold change /veh MAPK11 (11762145_a_at) / RFU FIZ1 (11724087_x_at) / Fold change /veh FIZ1 (11724087_x_at) / RFU OASL (11726364_x_at) / Fold change /veh OASL (11726364_x_at) / RFU SOX15 (11748057_x_at) / Fold change /veh SOX15 (11748057_x_at) / RFU CD79A (11719716_a_at) / Fold change /veh CD79A (11719716_a_at) / RFU HIST1H1D (11736915_at) / Fold change /veh HIST1H1D (11736915_at) / RFU CASKIN2 (11723855_a_at) / Fold change /veh CASKIN2 (11723855_a_at) / RFU LOC730098 (11760151_x_at) / Fold change /veh LOC730098 (11760151_x_at) / RFU OR4N2 (11742367_at) / Fold change /veh OR4N2 (11742367_at) / RFU PRRT2 (11749266_a_at) / Fold change /veh PRRT2 (11749266_a_at) / RFU SNX32 (11753110_a_at) / Fold change /veh SNX32 (11753110_a_at) / RFU CDHR5 (11726645_a_at) / Fold change /veh CDHR5 (11726645_a_at) / RFU RCAN1 (11760418_a_at) / Fold change /veh RCAN1 (11760418_a_at) / RFU FAM167A (11723789_a_at) / Fold change /veh FAM167A (11723789_a_at) / RFU FAM26E (11764081_at) / Fold change /veh FAM26E (11764081_at) / RFU ISYNA1 (11749810_s_at) / Fold change /veh ISYNA1 (11749810_s_at) / RFU ACY1 (11761880_at) / Fold change /veh ACY1 (11761880_at) / RFU 11764098_at / Fold change /veh 11764098_at / RFU SAMD14 (11745864_x_at) / Fold change /veh SAMD14 (11745864_x_at) / RFU NPB (11741838_a_at) / Fold change /veh NPB (11741838_a_at) / RFU TMPRSS6 (11731388_a_at) / Fold change /veh TMPRSS6 (11731388_a_at) / RFU KRTAP10-2 (11738614_at) / Fold change /veh KRTAP10-2 (11738614_at) / RFU ARHGAP8 /// PRR5-ARHGAP8 (11727945_x_at) / Fold change /veh ARHGAP8 /// PRR5-ARHGAP8 (11727945_x_at) / RFU KRTAP5-7 /// NADSYN1 (11734609_at) / Fold change /veh KRTAP5-7 /// NADSYN1 (11734609_at) / RFU RASL12 (11751679_a_at) / Fold change /veh RASL12 (11751679_a_at) / RFU CDKN2B (11736163_a_at) / Fold change /veh CDKN2B (11736163_a_at) / RFU PRF1 (11729649_at) / Fold change /veh PRF1 (11729649_at) / RFU, ZNF638 /// ZNF638-IT1 / Fold change vs veh, ZNF638 /// ZNF638-IT1 / RFU, PANK3 / Fold change vs veh, PANK3 / RFU, SH3YL1 / Fold change vs veh, SH3YL1 / RFU, ZEB2 / Fold change vs veh, ZEB2 / RFU, NRIP1 / Fold change vs veh, NRIP1 / RFU, PTTG1IP / Fold change vs veh, PTTG1IP / RFU, CAPN2 / Fold change vs veh, CAPN2 / RFU, MED14 / Fold change vs veh, MED14 / RFU, SNORA58 / Fold change vs veh, SNORA58 / RFU, C1orf63 / Fold change vs veh, C1orf63 / RFU, LRRFIP1 / Fold change vs veh, LRRFIP1 / RFU, NDUFAF7 / Fold change vs veh, NDUFAF7 / RFU, SLC12A2 / Fold change vs veh, SLC12A2 / RFU, IBTK / Fold change vs veh, IBTK / RFU, ESF1 / Fold change vs veh, ESF1 / Fold change vs veh, TMEM50B / RFU, TAOK1 / Fold change vs veh, TAOK1 / RFU, ACBD3 / Fold change vs veh, ACBD3 / RFU, TMA16 / Fold change vs veh, TMA16 / RFU, RWDD3 / Fold change vs veh, RWDD3 / RFU, BCAT1 / Fold change vs veh, BCAT1 / RFU, EDEM3 / Fold change vs veh, EDEM3 / RFU, TMEM33 / Fold change vs veh, TMEM33 / RFU, WDR75 / Fold change vs veh, WDR75 / RFU, AHCTF1 / Fold change vs veh, AHCTF1 / RFU, TFRC / Fold change vs veh, TFRC / RFU, ZDHHC17 / Fold change vs veh, ZDHHC17 / RFU, NOM1 / Fold change vs veh, NOM1 / RFU, ARL8B / Fold change vs veh, ARL8B / RFU, ZBTB11 / Fold change vs veh, ZBTB11 / RFU, TAMM41 / Fold change vs veh, TAMM41 / RFU, KIAA1704 /// LOC100996395 / Fold change vs veh, KIAA1704 /// LOC100996395 / RFU, ING1 / Fold change vs veh, ING1 / RFU, TRMT61B / Fold change vs veh, TRMT61B / RFU, FUBP3 / Fold change vs veh, FUBP3 / RFU, TP53 / Fold change vs veh, TP53 / RFU, TNKS2 / Fold change vs veh, TNKS2 / RFU, ZFP14 / Fold change vs veh, ZFP14 / RFU, ACTR2 / Fold change vs veh, ACTR2 / RFU, PPP3R1 / Fold change vs veh, PPP3R1 / RFU, PIK3R1 / Fold change vs veh, PIK3R1 / RFU, HNRNPA1 / Fold change vs veh, HNRNPA1 / RFU, RNF170 / Fold change vs veh, RNF170 / RFU, ZNF28 / Fold change vs veh, ZNF28 / RFU, RNGTT / Fold change vs veh, RNGTT / RFU, OGT / Fold change vs veh, OGT / RFU, BRD1 / Fold change vs veh, BRD1 / RFU, MARS / Fold change vs veh, MARS / RFU, ZNF655 / Fold change vs veh, ZNF655 / RFU, FAHD1 / Fold change vs veh, FAHD1 / RFU, BDP1 / Fold change vs veh, BDP1 / RFU, LRRCC1 / Fold change vs veh, LRRCC1 / RFU, ARID1A / Fold change vs veh, ARID1A / RFU, ZNF146 / Fold change vs veh, ZNF146 / RFU, ZNF330 / Fold change vs veh, ZNF330 / RFU, GPN3 / Fold change vs veh, GPN3 / RFU, C9orf123 / Fold change vs veh, C9orf123 / RFU, N4BP2L2 / Fold change vs veh, N4BP2L2 / RFU, ARFIP1 / Fold change vs veh, ARFIP1 / RFU, FAM179B / Fold change vs veh, FAM179B / RFU, BCL10 / Fold change vs veh, BCL10 / RFU, UHRF1BP1L / Fold change vs veh, UHRF1BP1L / RFU, BET1 / Fold change vs veh, BET1 / RFU, CNOT2 / Fold change vs veh, CNOT2 / RFU, ZNF268 / Fold change vs veh, ZNF268 / Fold change vs veh, ZNF507 / RFU, DGCR2 / Fold change vs veh, DGCR2 / RFU, WDSUB1 / Fold change vs veh, WDSUB1 / Fold change vs veh, HSP90B1 /// MIR3652 / RFU, ADSS / Fold change vs veh, ADSS / RFU, GK / Fold change vs veh, GK / RFU, ZNF148 / Fold change vs veh, ZNF148 / RFU, TAF9 / Fold change vs veh, TAF9 / RFU, SLC1A5 / Fold change vs veh, SLC1A5 / RFU, SLMO2 / Fold change vs veh, SLMO2 / RFU, ABCC4 / Fold change vs veh, ABCC4 / RFU, LOC101060439 /// RAP1B / Fold change vs veh, LOC101060439 /// RAP1B / RFU, RFX7 / Fold change vs veh, RFX7 / RFU, GTPBP10 / Fold change vs veh, GTPBP10 / RFU, CNEP1R1 / Fold change vs veh, CNEP1R1 / RFU, BIVM-ERCC5 /// ERCC5 / Fold change vs veh, BIVM-ERCC5 /// ERCC5 / RFU, ILF3 / Fold change vs veh, ILF3 / RFU 11762660_at / Fold change /veh 11762660_at / RFU VCAN (11757783_s_at) / Fold change /veh VCAN (11757783_s_at) / RFU DDX43 (11728927_at) / Fold change /veh DDX43 (11728927_at) / RFU KRT8 (11758188_x_at) / Fold change /veh KRT8 (11758188_x_at) / RFU NKD1 (11759106_at) / Fold change /veh NKD1 (11759106_at) / RFU SRD5A1 (11742802_a_at) / Fold change /veh SRD5A1 (11742802_a_at) / RFU TPSAB1 /// TPSB2 (11721975_s_at) / Fold change /veh TPSAB1 /// TPSB2 (11721975_s_at) / RFU GSTM3 (11746129_a_at) / Fold change /veh GSTM3 (11746129_a_at) / RFU IL23R (11737362_x_at) / Fold change /veh IL23R (11737362_x_at) / RFU TMEM51 (11727254_a_at) / Fold change /veh TMEM51 (11727254_a_at) / RFU PIWIL2 (11732686_x_at) / Fold change /veh PIWIL2 (11732686_x_at) / RFU ORM1 (11744905_x_at) / Fold change /veh ORM1 (11744905_x_at) / RFU CCDC152 (11743942_at) / Fold change /veh CCDC152 (11743942_at) / RFU ECM1 (11717891_a_at) / Fold change /veh ECM1 (11717891_a_at) / RFU IL23R (11748794_a_at) / Fold change /veh IL23R (11748794_a_at) / RFU TNFAIP8L3 (11732012_x_at) / Fold change /veh TNFAIP8L3 (11732012_x_at) / RFU MBOAT4 (11741988_at) / Fold change /veh MBOAT4 (11741988_at) / RFU 11764193_at / Fold change /veh 11764193_at / RFU TMEM53 (11763286_at) / Fold change /veh TMEM53 (11763286_at) / RFU MAGEB2 (11727129_at) / Fold change /veh MAGEB2 (11727129_at) / RFU TMEM200A (11744735_a_at) / Fold change /veh TMEM200A (11744735_a_at) / RFU CCDC152 (11751479_a_at) / Fold change /veh CCDC152 (11751479_a_at) / RFU FAM211A (11726209_a_at) / Fold change /veh FAM211A (11726209_a_at) / RFU RGS16 (11746705_a_at) / Fold change /veh RGS16 (11746705_a_at) / RFU VCAN (11755009_s_at) / Fold change /veh VCAN (11755009_s_at) / RFU RHOB (11743442_s_at) / Fold change /veh RHOB (11743442_s_at) / RFU RGS16 (11720943_a_at) / Fold change /veh RGS16 (11720943_a_at) / RFU RGS16 (11720944_at) / Fold change /veh RGS16 (11720944_at) / RFU, VPS4B / Fold change vs veh, VPS4B / RFU, CREB1 / Fold change vs veh, CREB1 / RFU, DNAJC13 / Fold change vs veh, DNAJC13 / RFU, GNAQ / Fold change vs veh, GNAQ / RFU, CDK5R1 / Fold change vs veh, CDK5R1 / RFU, ZRANB3 / Fold change vs veh, ZRANB3 / RFU, CUL4A / Fold change vs veh, CUL4A / RFU, CCNY / Fold change vs veh, CCNY / RFU, UFL1 / Fold change vs veh, UFL1 / RFU, COG3 / Fold change vs veh, COG3 / RFU, DIAPH2 / Fold change vs veh, DIAPH2 / RFU, SKA2 / Fold change vs veh, SKA2 / RFU, AFF3 / Fold change vs veh, AFF3 / RFU, LMF1 / Fold change vs veh, LMF1 / RFU, IPO11 / Fold change vs veh, IPO11 / RFU, DFFB / Fold change vs veh, DFFB / RFU, FOXP1 / Fold change vs veh, FOXP1 / RFU, CARD8 / Fold change vs veh, CARD8 / RFU, STRN3 / Fold change vs veh, STRN3 / RFU, ADK / Fold change vs veh, ADK / RFU, RASSF2 / Fold change vs veh, RASSF2 / RFU, WIPF1 / Fold change vs veh, WIPF1 / RFU, LARP1B / Fold change vs veh, LARP1B / RFU, RASA1 / Fold change vs veh, RASA1 / RFU, RB1 / Fold change vs veh, RB1 / RFU, PPFIA1 / Fold change vs veh, PPFIA1 / RFU, MAT2A / Fold change vs veh, MAT2A / RFU, CCT5 / Fold change vs veh, CCT5 / RFU, WDR92 / Fold change vs veh, WDR92 / RFU, CUX1 / Fold change vs veh, CUX1 / RFU, TTC7A / Fold change vs veh, TTC7A / RFU, TMEM135 / Fold change vs veh, TMEM135 / RFU, DEPTOR / Fold change vs veh, DEPTOR / RFU, CPM / Fold change vs veh, CPM / RFU, DNAJB6 / Fold change vs veh, DNAJB6 / RFU, CACNA2D3 / Fold change vs veh, CACNA2D3 / RFU, DTX4 / Fold change vs veh, DTX4 / RFU, TFCP2 / Fold change vs veh, TFCP2 / RFU, GMCL1 /// GMCL1P1 / Fold change vs veh, GMCL1 /// GMCL1P1 / RFU, AEBP2 / Fold change vs veh, AEBP2 / RFU, SNHG1 /// SNORD22 /// SNORD25 /// SNORD26 /// SNORD27 /// SNORD28 /// SNORD29 /// SNORD31 / Fold change vs veh, SNHG1 /// SNORD22 /// SNORD25 /// SNORD26 /// SNORD27 /// SNORD28 /// SNORD29 /// SNORD31 / Fold change (Aza/veh), C12orf56 (ProbeSet 11735607_a_at) / Fold change (ACY-1035/veh), C12orf56 (ProbeSet 11735607_a_at) / Fold change (Aza/veh), FGFR1OP (ProbeSet 11751329_s_at) / Fold change (ACY-1035/veh), FGFR1OP (ProbeSet 11751329_s_at) / Fold change (Aza/veh), VPS36 (ProbeSet 11739960_a_at) / Fold change (ACY-1035/veh), VPS36 (ProbeSet 11739960_a_at) / RFU SYPL1 (11715823_x_at) / Fold change /veh SYPL1 (11715823_x_at) / RFU IGFBP7 (11715501_s_at) / Fold change /veh IGFBP7 (11715501_s_at) / RFU REEP3 (11722064_at) / Fold change /veh REEP3 (11722064_at) / RFU IGLL1 (11728026_x_at) / Fold change /veh IGLL1 (11728026_x_at): dose or concentration left out as unconfirmed. The conditions noted are these: MV-4-11 cells, 48 hours. It is filed as cell-based, human.

SMILES strings stand for the structures.

For the compound `Nc1ccc(-c2cccs2)cc1NC(=O)c1ccc2c(c1)cc(C1CC1)n2CCN1CCOCC1` [ACY-1035], the “Fold change /veh ISYNA1 (11749810_s_at)” value was determined as 0.96.
